Two compounds from patent US11944613B2, “CYP2J2 antagonists in the treatment of pain” (FRAUNHOFER-GESELLSCHAFT ZUR FÖRDERUNG DER ANGEWANDTEN …, priority 2014, dated 2024) can be followed below.

For one data set, the target named is CYP3A4 (Homo sapiens, UniProt P08684). As to the kind of experiment: CYP3A4 P450-Glo luciferase assay (unselective control).
The target of a further data set is T1, CYP2J2 (Homo sapiens, UniProt P51589).
T1 sequence (P51589 1-502): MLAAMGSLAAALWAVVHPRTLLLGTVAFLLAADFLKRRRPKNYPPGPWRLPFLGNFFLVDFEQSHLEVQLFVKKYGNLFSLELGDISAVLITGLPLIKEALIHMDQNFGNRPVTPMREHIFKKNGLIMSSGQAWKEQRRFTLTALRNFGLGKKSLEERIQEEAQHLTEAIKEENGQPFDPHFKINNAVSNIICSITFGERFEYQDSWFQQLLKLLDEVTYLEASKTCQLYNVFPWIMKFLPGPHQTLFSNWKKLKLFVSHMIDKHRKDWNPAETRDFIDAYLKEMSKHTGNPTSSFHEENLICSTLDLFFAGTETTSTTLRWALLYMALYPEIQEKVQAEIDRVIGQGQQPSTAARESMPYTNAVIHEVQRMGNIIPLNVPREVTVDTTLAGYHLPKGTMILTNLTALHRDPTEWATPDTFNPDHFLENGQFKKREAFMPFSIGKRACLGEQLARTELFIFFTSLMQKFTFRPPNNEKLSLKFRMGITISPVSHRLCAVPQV
Kind of data set: CYP2J2 P450-Glo luciferase assay (FDA Approved Drug Library screen). Conditions: read-out: Average inhibition CYP2J2 (%).

Data set [1] deals with lamina II neurons of spinal cord slices. Kind of data set: sEPSC recordings in lamina II neurons of spinal cord slices. The class given is cell-based. The procedure: (d) Frequency of sEPSCs. […] (E) Amplitude of sEPSCs. […] To confirm the effect of TRPV1 sensitization by 9,10-EpOME with electrophysiological means, the inventors measured sEPSCs from lamina II neurons of spinal cord slices using two capsaicin stimulations [1 μM] and incubating the cells prior to the second capsaicin stimulus with 9,10-EpOME [1 μM] (FIG. 3C). […] In combination with capsaicin, however, the sEPSC frequency was strongly potentiated (FIG. 3D). However, no difference in the amplitude of sEPSCs could be observed with either 9,10-EpOME, […] or the combination of both substances (FIG. 3E).

Structures can show the parent of a compound that is named as a salt.

Chain of CYP3A4 (P08684 whole entry): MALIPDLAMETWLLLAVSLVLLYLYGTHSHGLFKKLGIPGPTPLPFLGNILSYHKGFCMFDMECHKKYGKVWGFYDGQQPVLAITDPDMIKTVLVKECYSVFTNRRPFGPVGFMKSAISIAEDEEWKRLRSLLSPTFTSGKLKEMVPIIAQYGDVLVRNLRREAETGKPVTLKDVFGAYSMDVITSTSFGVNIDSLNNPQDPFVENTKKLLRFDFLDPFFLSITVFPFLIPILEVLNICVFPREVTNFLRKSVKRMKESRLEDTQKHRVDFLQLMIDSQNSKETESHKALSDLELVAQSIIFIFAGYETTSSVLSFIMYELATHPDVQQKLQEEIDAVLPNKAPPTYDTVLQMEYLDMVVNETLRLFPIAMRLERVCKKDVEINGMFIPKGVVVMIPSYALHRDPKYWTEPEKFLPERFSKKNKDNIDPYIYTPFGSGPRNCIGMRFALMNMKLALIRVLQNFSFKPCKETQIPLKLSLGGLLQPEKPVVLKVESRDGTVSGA

On to `CC(COc1ccccc1)N(CCCl)Cc1ccccc1` (stereo not shown) [c089, Phenoxybenzamine•HCl], for which the inhibition at 30 min, 10 μM at CYP3A4 amounted to 17.9%. Further, the inhibition at 10 µM at CYP2J2 stood at 75%.

For `COc1cc(CNC(=O)CCCC/C=C/C(C)C)ccc1O` [capsaicin], the “frequency of sEPSCs, substance alone” value in data set [1] (1 mM as printed in legend, baseline 6.9±0.4 Hz, n=5 neurons) is recorded as 13.7±0.4 Hz. Also, the “amplitude of sEPSCs” value in data set [1] (n=5 neurons/group) is given as “no significant effects”.
